Measurements reported in patent publication US8895569B2, “Carbocyclic nucleosides and their pharmaceutical use and compositions” (Cellceutix Corporation, priority 2012, dated 2014).

Tests used:
[1] = tested on: Psoriasis susceptibility related RNA Gene Induced by Stress (PRINS); experiment: PRINS expression in human psoriatic tissue transplants on SCID mice; type: in vivo, SCID mice bearing human psoriatic tissue; conditions: for PRINS: control 49
Method: (§1) In order to examine efficacy of the (−) cis-[4-[2-amino-6-(cyclopropylamino)-9H-purin-9-yl]-2-cyclopentene-1-hydroxymethyl acetate in mice, male and female SCID mice (24 to 28 gms) 6 to 8 weeks old were purchased from Charles River Laboratory (Wilmington, Mass.). The animals were kept in standard rodent cages with isolator tops at 18-26° C., and a relative humidity of 30-70% on a 12 hour light/12 hour dark cycle. Mice were given rodent chow and water ad libitum. […] Suitable animals were selected for the assigned study.
(§2) Mice were subjected to total body irradiation to mildly suppress immune system at 120 rads per animal in a Gamma Cell Radiator. Mice were identified by ear punching.
(§3) 24 Hours after the TBI, a 5 mm×5 mm cut of the human psoriatic tissue was transplanted on the skin of the mice, under ketamine/xylazine anesthesia. The tissues were adherent by using a skin cement. All animals survived the anesthesia and the surgery for the experiment. The complete fusion of the tissues was achieved by day 27. During treatments, mice were observed daily for any adverse affects. Mice body weights were taken prior to treatment and every other day during the post treatment. If an animal became unwell, any treatment of that animal was suspended. If there was no recovery, the animal was sacrificed. […] Mice transplant area size measurements were taken prior to treatment and every other day during and post treatment. The same scientist was responsible for taking the measurements throughout the study.
(§4) Groups of 5 male mice and 5 female mice bearing psoriatic tissues were treated with either (−) cis-[4-[2-amino-6-(cyclopropylamino)-9H-purin-9-yl]-2-cyclopentene-1-hydroxymethyl acetate (Prurisol) alone or methotrexate (MTX) according to the schedule below. Another group of mice remained untreated to serve as controls.
(§5) Prurisol was administered orally (PO) to the mice, along with the topical application at 8 hour intervals on the effected area. […] In psoriasis, anti-apoptotic protein G1P3 is over expressed, which is regulated by the non-coding RNA. Psoriasis susceptibility related RNA Gene Induced by Stress (PRINS) was examined in control animal's transplants and treated ones (the expression in psoriatic plaques will be 10 times higher), and results from these studies are shown below.

IL-20 = IL-20 in tissue measured by ELISA, psoriatic xenograft SCID mice; type: in vivo, SCID mice bearing human psoriatic tissue; conditions: for IL-20: ELISA, control 178; for reduction of IL-20 concentration in tissue: versus control
Method: as §1, §2, §3, §4
IL-20 was also measured using ELISA technique and data is also shown below.

[2] = Oral bioavailability and disposition of Prurisol; conditions: in vivo
[3] = Weight changes of treated mice; type: in vivo, SCID mice
Method: as §3, §5

Storage stability = type: physicochemical; conditions: stored at ambient temperature, protected from light
human psoriatic tissue = experiment: Recovery from psoriasis in SCID mice implanted with human psoriatic tissue; type: in vivo; conditions: 10 mg, one time per day or BID
Method: as §1, §2
24 Hours after the TBI, a 5 mm×5 mm cut of the human psoriatic tissue was transplanted on the skin of the mice, under ketamine/xylazine anesthesia. The tissues were adherent by using a skin cement. All animals survived the anesthesia and the surgery for the experiment. The complete fusion of the tissues was achieved by day 27. During treatments, mice were observed daily for any adverse affects. Mice body weights were taken prior to treatment and every other day during the post treatment. If an animal became unwell, any treatment of that animal was suspended. If there was no recovery, the animal was sacrificed. […]

[4] = Prurisol 10 mg/kg, MTX 7.5 mg/kg

bioavailability ([2]; oral, read-out: oral bioavailability (% F)) [%] | weight loss ([3]; 5 mg/kg on days 11 to 35 and 20 mg/kg topically) | weight loss due to administration ([3]; orally (PO) along with topical application at 8 hour intervals) | stability (Storage stability) | SMILES | PRINS [1, 4] | IL-20 (IL-20; [4]) | reduction of IL-20 concentration in tissue (IL-20) [fold] | crossing the blood brain barrier [2] | metabolism route [2] | PRINS ([1]; Prurisol × 2 (2×10 mg/kg)) | PRINS reduction in comparison to methotrexate ([1]; in vivo) | IL-20 (IL-20; Prurisol × 2 (2×10 mg/kg)) | recovery from psoriasis (skin appearance, FIG. 6) (human psoriatic tissue)
– | – | – | – | CN(Cc1cnc2nc(N)nc(N)c2n1)c1ccc(C(=O)N[C@@H](CCC(=O)O)C(=O)O)cc1 [MTX, methotrexate, reference compound] | 28 | 127 | 1.4 | – | – | – | – | – | –
83 | no weight loss | within acceptable limits | stable | Nc1nc(NC2CC2)c2ncn([C@H]3C=C[C@@H](COC(=O)CO)C3)c2n1 [Prurisol] | 24 | 54 | 3 | capable of crossing the blood brain barrier | metabolized primarily through alcohol dehydrogenase or glucuronyl transferase | 5 | reduces PRINS significantly | 18 | recovered from psoriasis
